Holding throughout (assay type): cell-based
In assay [1] the test system is Streptococcus mutans (ATCC 25175) biofilm. Put plainly: Qualitative Biofilm Inhibition Test (visual examination of discs). Also on record: key: +: a visual assessment that a compound inhibited biofilm formation; −: a visual assessment that either a compound did not inhibit biofilm formation, or that bacteria grew in the culture broth. The note with it: visible biofilm on cured composite disc after incubation and water rinse; 1 weight percent compound, 1.0 weight percent sucrose. The procedure: During the procedure for the Quantitative Biofilm Inhibition Test, each cured disc was visually examined after it was removed from the broth (and rinsed with water) and before it was placed in a test tube containing five milliliters of 1M aqueous sodium hydroxide solution. The presence or absence of visible biofilm on a disc was noted. The Biofilm Inhibition Test was carried out using compounds of the dental composition. […] In addition, a qualitative determination of biofilm formation was made for each Example and the Comparative Example in which each disc was visually examined before it was placed in the tube containing the aqueous sodium hydroxide solution.

The subject of assay [2] is Pseudomonas aeruginosa (strain ATCC 9027). Briefly: Minimum Inhibitory Concentration (MIC) Test, P. aeruginosa. The note with it: 37° C., 24 hours, "none" = no inhibitory activity detected. The protocol:
(§1) The MIC Test was carried out using successively lower concentrations of compounds. Sterile tryptic soy broth (50 microliters; TSB, available from BD Dfico, Becton, Dickinson and Company, Franklin Lakes, N.J.) was deposited into each well of a sterile polystyrene 96-well microtiter plate. Into each well in the first (leftmost) column of the plate, there was then deposited a 50 microliter aliquot (of known concentration) of a compound (I.e., a compound of Formula I, or a pharmaceutically acceptable salt thereof, or comparative compound). A 50 microliter aliquot of the mixture in the first (leftmost) well in the first row of the plate was transferred to the second well in the first row. A 50 microliter aliquot of the mixture in the second well in the first row was then transferred to the third well in the first row. The compound was successively diluted (1:1 dilution at each step) by transferring a 50 microliter aliquot from one well into the next well, across the row of the plate. This procedure was repeated for each row of the plate. Then, an overnight culture of Streptococcus mutans (strain ATCC 25175) was diluted 1:100 into sterile tryptic soy broth. A 50 microliter aliquot of the diluted S. mutans culture (10^5 CFU) was deposited into each well of the microtiter plate. The plate was then incubated at 37° C. for 24 hours in a sealed humidified chamber. The plate was then visually inspected to determine the lowest concentration of compound at which no bacterial growth was visible. This value was considered to be the minimum inhibitory concentration (MTC) for the compound. The test was repeated using Staphylococcus aureus (strain ATCC 6538) and Pseudomonas aeruginosa (strain ATCC 9027) in place of S. mutans. A sample of each of the compounds of Formulae II, III, IV, V, and VI (0.050 g each) was dissolved in water (5 g). Each of the samples was evaluated using the Minimum Inhibitory Concentration (MIC) Test described above with S. mutans, S. aureus, and P. aeruginosa. In Table 3, “none” means that no inhibitory activity was detected.

The test system of assay [3] is Streptococcus mutans (strain ATCC 25175). Briefly: Minimum Inhibitory Concentration (MIC) Test, S. mutans. The settings on record: 37° C., 24 hours, "none" = no inhibitory activity detected. The protocol:
as §1

Assay [4] concerns Streptococcus mutans (ATCC 25175) biofilm. Put plainly: Quantitative Biofilm Inhibition Test. The settings on record: average optical density at 550 nm as percentage of control; 1 weight percent compound, 1.0 weight percent sucrose in brain heart infusion broth, 37° C., approximately twenty hours, five discs. The procedure: Compounds of the dental compositions of the invention, and comparative compounds, were evaluated for biofilm inhibition activity. Composite dental restorative (available under the trade designation “FILTEK SUPREME” from 3M ESPE Dental Products, St. Paul, Minn.) was placed in a 15 millimeter by 1 millimeter stainless steel die. The open ends of the die were then covered with polyester film and the die was subjected to a pressure of 68.95 MPa using a hydraulic press. While the die containing the composite restorative was under compression, the composite was irradiated for two minutes using a Model ACE light source (available from SCHOTT North America, Inc., Auburn, N.Y.). The discs of cured composite restorative were then further cured using a Model UniXS light box (available from Heraeus Kulzer, Inc., Armonk, N.Y.) for 1.5 minutes.
The cured discs of composite restorative were then immersed in ten milliliters of Streptococcus mutans culture (ATCC 25175; 10^6 CFU/mL) prepared in brain heart infusion broth that contained 1.0 weight percent sucrose and 1 weight percent of a compound of the dental composition. The samples were incubated at 37° C. for approximately twenty hours, after which time the cured discs were removed from the broth and were gently rinsed with water. Each disc was placed in a separate test tube containing five milliliters of 1M aqueous sodium hydroxide solution, and each test tube was then sonicated for two minutes using a model SH1012-40-8 ultrasonic generator (manufactured by Branson Ultrasonics Corp., Danbury, Conn.) for two minutes to dislodge biofilm on the disc. The optical absorbance (optical density) of each aqueous sodium hydroxide solution was then measured at 550 nm using a Model ULTROSPEC III UV-visible spectrophotometer (manufactured by Pharmacia AB, Uppsala, Sweden). For each compound of the dental composition, five discs were separately incubated in broth and were evaluated separately to provide five optical density measurements. The average of the five optical density measurements was then calculated. […] The average optical density of the control or comparative samples was determined as described above. The ratio, expressed as a percentage, of the average optical density for each compound sample to the average optical density for a control sample was calculated by dividing the average optical density for each compound sample by the average optical density for a control sample and multiplying the result by one hundred. The ratio was considered to be proportional to the average amount of biofilm on the five cured discs, i.e., relatively low average optical density ratio was considered to be indicative of inhibition of biofilm formation. The ratio for the control was 100%.
The Biofilm Inhibition Test was carried out using compounds of the dental composition. […] In addition, a qualitative determination of biofilm formation was made for each Example and the Comparative Example in which each disc was visually examined before it was placed in the tube containing the aqueous sodium hydroxide solution.

Assay [5] relates to Staphylococcus aureus (strain ATCC 6538). Put plainly: Minimum Inhibitory Concentration (MIC) Test, S. aureus. The note with it: tryptic soy broth, 37° C., 24 hours, "none" = no inhibitory activity detected. The protocol: as §1
The subject of assay [6] is Streptococcus mutans (ATCC 25175) biofilm. Briefly: Biofilm Inhibition Test: concentration of compound to inhibit biofilm formation at varied sucrose.
Where [7] appears, read: Streptococcus mutans, ATCC25175, tryptic soy broth, read-out: MIC.

≈ marks a conversion by molar mass, not a printed value. Like-named read-outs stand apart in the source and are kept apart here.

For `NC[C@H](O)[C@@H](O)[C@H](O)[C@H](O)CO` [D-Glucamine, D-glucamine], the “Visual Assessment” value in assay [1] was “+”. In addition, the MIC entry in assay [2] (tryptic soy broth), in assay [3] (tryptic soy broth) and in assay [5] was “none” each time. The “OD Ratio” value in assay [4] is listed as 101.5%.
In the case of `CNC[C@H](O)[C@@H](O)[C@H](O)[C@H](O)CO` [N-Methyl-D-glucamine, N-methyl-D-glucamine], the “Visual Assessment” value in assay [1] is “+”. Moreover, the MIC entry in assay [2] (tryptic soy broth), in assay [3] (tryptic soy broth) and in assay [5] was “none” in each case. Besides, the “OD Ratio” value in assay [4] was found to be 0%. Moreover, the “Concentration of Compound to Inhibit Biofilm Formation” value in assay [6] (1 wt % Sucrose), in assay [6] (2.5 wt % Sucrose) and in assay [6] (5 wt % Sucrose) was 50 mM each time.
In the case of `CCCCCCCCCC(=O)N(C)C[C@H](O)[C@@H](O)[C@H](O)[C@H](O)CO` [N-Methyl-N-decanoyl-D-glucamine, N-methyl-N-decanoyl-D-glucamine], the “Visual Assessment” value in assay [1] is on record as “+”. Further, the MIC in assay [2] (Pseudomonas aeruginosa, ATCC9027, tryptic soy broth, read-out: MIC) came out at 2500 µg/mL (≈ 7.15 mM); in assay [3] (setting [7]), 1250 µg/mL (≈ 3.58 mM); in assay [5], 2.50. The “OD Ratio” value in assay [4] came out at 0%.
As to `CCCCCCCCC(=O)N(C)C[C@H](O)[C@@H](O)[C@H](O)[C@H](O)CO` [N-Methyl-N-nonanoyl-D-glucamine, N-methyl-N-nonanoyl-D-glucamine], in assay [1], the “Visual Assessment” value is listed as “+”. Besides, the results for the MIC entry in assay [2] (tryptic soy broth), in assay [3] (setting [7]) and in assay [5] were “none”, 2500 µg/mL (≈ 7.45 mM) and “none”, respectively. Also, the “OD Ratio” value in assay [4] was 0%.
Take `CCCCCCCC(=O)N(C)C[C@H](O)[C@@H](O)[C@H](O)[C@H](O)CO` [N-Methyl-N-octanoyl-D-glucamine, N-methyl-N-octanoyl-D-glucamine]: the “Visual Assessment” value in assay [1] is on record as “+”. Besides, the MIC result in assay [2] (tryptic soy broth), in assay [3] (tryptic soy broth) and in assay [5] was “none” in each case. Also, the “OD Ratio” value in assay [4] is listed as 0%.

Source of the values: patent publication US8968709B2, “Therapeutic dental composition and related methods” (3M Innovative Properties Company, priority 2007, dated 2015).
